The test system of one data set is honeybees. Nature of the data set: Honeybee repulsion feeding station experiment, repellent in 50% sucrose solution. The conditions noted are these: 2% by weight with 50% sucrose. The data set is classed as in vivo. Here is the method: FIG. 1 describes the feeding station arrangement (A and B) for the honeybee repulsion experiments described herein. As set forth in FIG. 1, panel (A) sets forth the bee cage positions on the left portion of panel (A) with the randomized feeding station positions on the right portion of panel (A). Panel (B) sets forth an alignment of the randomized feeding station positions with a distance of two meters between feeding stations. A total of eight feeding stations were evaluated at a ten meter distance in front of the respective bee hives. The feeding stations were placed two meters apart from one another.
Honeybees were trained to deep feeders (eight positions), each containing a 50% sucrose solution for one day. After the honeybees were trained to each feeder, the 50% sucrose feeder at randomized positions 1-8 was replaced with a shallow feeder containing a combination of repelling compounds and a 50% sucrose solution according to Table 5. In accordance with FIGS. 5 and 6, 2% by weight of Camphor oil (T4), Ajowan oil (T5), Camphor powder (T6), Rosemary oil (T7), and 2-Decanone (T8) in combination with a 50% sucrose treatment were added to feeders on day two.
Table 5 describes active agents evaluated for bee repulsion and their randomized feeding station positions. As described in Table 5, T1 (control), T2 (control), T3 (control), T4 (Camphor oil), T5 (Ajowan oil), T6 (Camphor powder), T7 (Rosemary oil), and T8 (2-Decanone).
FIG. 5 evaluates the number of bees visiting a respective feed station over a time interval. FIG. 6 sets forth the mean number of honeybees visiting feeding station over a period of four hours.

Data set [1] in a line: Stability test of Poncho 600 with α-terpineol, clothianidin content by HPLC. As to conditions: combined with alpha-terpineol; up to 54° C. for eight days. The data set is classed as physicochemical. Here is the method: Table 7 describes a stability test with a combination of α-terpineol and Poncho 600 evaluated at room temperature, 40° C., and 54° C. at zero time, 2 days, and 8 days as confirmed by HPLC.

The nature of data set [2]: Stability test of Poncho 600 with Eugenol, clothianidin content by HPLC. The data set is classed as physicochemical. The conditions noted are these: combined with Eugenol; up to 54° C. for seven days. The protocol: Table 6 describes a stability test with a combination of Eugenol and Poncho evaluated at room temperature, 40° C., and 54° C. at zero time, 3 days, and 7 days as confirmed by high performance liquid chromatography (HPLC).

Take `CCCCCCCCC(C)=O` [Compound 2-decanone, 2-decanone]: in the data set with honeybees (4 hours), the “repellency to honeybees over the full 4 hour assessment period” value is on record as “highly repellent”. For the same compound, the “repellency to honeybees at 24 hours” value is on record as “still repellent” with honeybees and “exhibited repellency” in the data set on honeybees (listed as 2-Decanone).

For `CN/C(=N\[N+](=O)[O-])NCc1cnc(Cl)s1` [clothianidin], the “chemical stability of clothianidin content” value in data set [1] and in data set [2] was “exhibited chemical stability” each time.

Source of the values: patent publication US11963527B2, “Compounds, compositions, and methods for altering insect and organism behavior” (BASF Corporation, priority 2013, dated 2024).
